Converted amounts (≈) assume the structure as drawn. Like-named read-outs stand apart in the source and are kept apart here.
How the values were obtained:
[1] = test system: cecum fluid from a swine; experiment: swine in vitro model, cecum fluid incubation
Procedure: The swine in vitro model was carried by incubating 1.5 ml of cecum fluid, from a swine fed normal rations, mixed with 1.5 ml of a nutrient broth (3 mg casein hydrolysate, 30 mg maltose, 1.25 mg urea, 0.5 mg lysine, and 30 mg cellobiose) and with up to 166.67 parts per million of a selected growth promotant at 39° C., with oscillation, for about 4-5 hours. Results, percentage of control, are reported in the following table in which all abbreviations are as above and LLAC means L-lactate, ETOH means ethanol and GLU means glucose.

[2] = test system: Staphylococcus aureus; experiment: standard microtiter assay, minimum inhibitory concentration; type: cell-based; conditions: Staphylococcus aureus, read-out: minimum inhibitory concentration
Source text: (§1) Representative results of standard microtiter assays are reported in Tables 1, 2 and 3 which follow, as the minimum inhibitory concentration of antibiotic (μg/ml).
(§2) In Table 1, test organisms 1-13 were different strains of Staphylococcus aureus, and 14-16 were different strains of Staphylococcus epidermidis. In Table 2, test organisms 1-5 were different strains of S. aureus; 6, 8, 12 and 14 were different strains of S. epidermidis; 7 was a Staphylococcus haemolyticus; 9 and 10 were different strains of Streptococcus faecalis; 11 was a Streptococcus pyogenes; and 13 was a Staphylococcus saprophyticus. In Table 3, test organisms 1-3 were different strains of S. aureus; 4 and 6 were different strains of S. epidermidis; 5 was a S. haemolyticus and 7 and 8 were different strains of Streptococcus faecalis. Except where individual components are indicated, the CWI-785 antibiotic employed was the CWI-785 complex; in some cases, HCl salts of the CWI-785 antibiotic were employed.
The number of strains tested is shown in parentheses below each organism. The average MIC is reported in μg/ml.
(§3) In Table 5 are shown data from standard microtiter assays carried out in a presence of no serum, 50% human serum (hum.) and 50% mouse serum (mse.). The test organisms were 1: S. aureus; 2,4 and 5: different strains of S. epidermidis; 3: S. haemolyticus; 6: S. saprophyticus; 7 and 8: different strains of S. faecalis.

[3] = test system: Staphylococcus epidermidis; experiment: as above; type: cell-based
Source text: as §1, §2, §3

## Virginiamycin
[1]; 1.67 PPM
  % PR (propionate relative to TOTAL): 99% OF CONTROL
  ACE (acetate): 138% OF CONTROL
  BUT (butyrate): 178% OF CONTROL
  ETOH (ethanol): 309% OF CONTROL
  GLU (glucose): 152% OF CONTROL
  IBU (isobutyrate): 0% OF CONTROL
  IVA (isovalerate): 251% OF CONTROL
  LLAC (L-lactate): 17% OF CONTROL
  PRO (propionate): 147% OF CONTROL
  TOTAL (total VFA): 148% OF CONTROL
  VAL (valerate): 262% OF CONTROL
[1]; 16.67 PPM
  % PR (propionate relative to TOTAL): 81% OF CONTROL
  ACE (acetate): 58% OF CONTROL
  BUT (butyrate): 95% OF CONTROL
  ETOH (ethanol): 273% OF CONTROL
  GLU (glucose): 151% OF CONTROL
  IBU (isobutyrate): 0% OF CONTROL
  IVA (isovalerate): 40% OF CONTROL
  LLAC (L-lactate): 32% OF CONTROL
  PRO (propionate): 42% OF CONTROL
  TOTAL (total VFA): 52% OF CONTROL
  VAL (valerate): 113% OF CONTROL
[1]; 166.67 PPM
  % PR (propionate relative to TOTAL): 59% OF CONTROL
  ACE (acetate): 45% OF CONTROL
  BUT (butyrate): 83% OF CONTROL
  ETOH (ethanol): 0% OF CONTROL
  GLU (glucose): 151% OF CONTROL
  IBU (isobutyrate): 0% OF CONTROL
  IVA (isovalerate): 56% OF CONTROL
  LLAC (L-lactate): 39% OF CONTROL
  PRO (propionate): 20% OF CONTROL
  TOTAL (total VFA): 34% OF CONTROL
  VAL (valerate): 84% OF CONTROL

## COc1cccc(OC)c1C(=O)N[C@@H]1C(=O)N2[C@@H]1SC(C)(C)[C@@H]2C(=O)O [Methicillin]
[2]; Table 1 test organism 1, S. aureus strain
  MIC: 3.1 µg/mL (≈ 8.15 µM)
[2]; Table 1 test organism 2, S. aureus strain
  MIC: 12.5 µg/mL (≈ 32.9 µM)
[2]; Table 1 test organism 3, S. aureus strain
  MIC: 6.3 µg/mL (≈ 16.6 µM)
[2]; Table 1 test organism 4, S. aureus strain
  MIC: 12.5 µg/mL (≈ 32.9 µM)
[2]; Table 1 test organism 5, S. aureus strain
  MIC: 12.5 µg/mL (≈ 32.9 µM)
[2]; Table 1 test organism 6, S. aureus strain
  MIC: 12.5 µg/mL (≈ 32.9 µM)
[2]; Table 1 test organism 7, S. aureus strain
  MIC: > 50 µg/mL
[2]; Table 1 test organism 8, S. aureus strain
  MIC: > 50 µg/mL
[2]; Table 1 test organism 9, S. aureus strain
  MIC: > 50 µg/mL
[2]; Table 1 test organism 10, S. aureus strain
  MIC: > 50 µg/mL
[2]; Table 1 test organism 11, S. aureus strain
  MIC: > 50 µg/mL
[2]; Table 1 test organism 12, S. aureus strain
  MIC: 50 µg/mL (≈ 131 µM)
[2]; Table 1 test organism 13, S. aureus strain
  MIC: > 50 µg/mL
[3]; Staphylococcus epidermidis, Table 1 test organism 14, S. epidermidis strain, read-out: minimum inhibitory concentration
  MIC: 1.6 µg/mL (≈ 4.21 µM)
[3]; Table 1 test organism 15, S. epidermidis strain
  minimum inhibitory concentration: 1.6 µg/mL (≈ 4.21 µM)
[3]; Table 1 test organism 16, S. epidermidis strain
  minimum inhibitory concentration: 1.6 µg/mL (≈ 4.21 µM)

— patent US4742045A, “Glycopeptide antibiotics” (SmithKline Beckman Corporation, priority 1986, dated 1988)
